Test results from publication PMC9822155, “Synthesis and Antiproliferative Activity against Cancer Cells of Indole-Aryl-Amide Derivatives” (Molecules, 2022).

Experiments:
κ-OR = molecular target: T1, κ-OR (Homo sapiens, UniProt P41145); assay: Radioligand binding assay, κ-OR ([3H]U-69593 displacement); conditions: [3H]U-69593, membranes of CHO cells with human recombinant OR; ± SEM (n ≥ 3)
T1 construct: purchased PerkinElmer (Krakow, Poland); host or cells: CHO cells (membranes)
Procedure: In order to evaluate the affinity of the compounds for μ-, δ-, κ-ORs, radioligand binding assays were performed. Displacement of radioligands, [^3H]DAMGO (μ-OR selective), [^3H]deltorphin-2 (δ-OR selective), and [^3H]U-69593 (κ-OR selective) by the synthetic analogs was investigated in the commercial membranes of CHO cells transfected with human recombinant ORs. […] Due to the modest receptor affinities, the functional activity of the compounds was not investigated.
Opioid radioligands, [^3H]DAMGO, [^3H]deltorphin-2 and [^3H]U-69593, and human recombinant opioid receptors came from PerkinElmer (Krakow, Poland). GF/B glass fiber strips were purchased from Whatman (Brentford, UK).
To determine the affinity of peptide analogs at the respective receptors, competition binding experiments were performed. Commercial membranes of CHO cells stably expressing human opioid receptors and the competing radioligands, [^3H]DAMGO, [^3H]deltorphin-2, and [^3H]U-69593 for μ-OR, δ-OR, and κ-OR, respectively, were used. Membranes were incubated in 0.5 mL volume of 50 mM Tris/HCl (pH = 7.4), 0.5% bovine serum albumin (BSA), with a number of peptidase inhibitors (bacitracin, bestatin, captopril) and various concentrations of radioligands for 2 h at 25 °C. Non-specific binding was assessed in the presence of […]. Three independent experiments for each assay were carried out in duplicate. The data were analyzed by a nonlinear least square regression analysis computer program Graph Pad PRISM 6.0 (Graph Pad Software Inc., San Diego, CA, USA). The IC50 values were determined from the logarithmic concentration-displacement curves, and the values of the inhibitory constants (Ki) were calculated according to the equation of Cheng and Prusoff.

[1] = tested on: acetylated histones in HT29 cells; assay: Histone acetylation, western blot of nuclear lysates; type: cell-based, human; conditions: HT29, 5 μM, 6 h
Procedure: In order to identify acetylated histones, we analyzed the nuclear cell lysates by western blot using a 10% polyacrylammide gel electrophoresis. […] Differences in the density of the bands are thought to reflect differences in protein acetylation levels. Histone acetylation signals were quantified by densitometry and normalized on histone H1 (Figure 5).
HT29 cells were seeded in dish and after 24 h they were treated for 6 h with compound 5 at final concentration of 5 µM. Cells were harvested, washed with 10 mM sodium butyrate in PBS, and nuclei were isolated in according to Amellem and Micheletti. The nuclear pellet was suspended in 0.1 mL ice-cold H2O using a Vortex mixer, and concentrated H2SO4 was added to the suspension to give a final concentration of 0.4 N. After incubation at 4 °C for 1 h, the suspension was centrifuged for 5 min at 14,000× g, and the supernatant was taken and mixed with 1 mL of acetone. After overnight incubation, the coagulate material was collected by microcentrifugation and air-dried. […] Proteins were quantified using a protein assay kit (Bio-Rad, Hercules, CA, USA). Histones were detected resolving samples on a 10% gel in MES buffer at 200 V for 40 min. […] After five washes with PBS-TWEEN 20 0.1%, antibody binding was detected by Amersham ECL Plus Western Blotting Detection System (GE Healthcare, Milan, Italy).

T1 sequence (P41145 whole entry): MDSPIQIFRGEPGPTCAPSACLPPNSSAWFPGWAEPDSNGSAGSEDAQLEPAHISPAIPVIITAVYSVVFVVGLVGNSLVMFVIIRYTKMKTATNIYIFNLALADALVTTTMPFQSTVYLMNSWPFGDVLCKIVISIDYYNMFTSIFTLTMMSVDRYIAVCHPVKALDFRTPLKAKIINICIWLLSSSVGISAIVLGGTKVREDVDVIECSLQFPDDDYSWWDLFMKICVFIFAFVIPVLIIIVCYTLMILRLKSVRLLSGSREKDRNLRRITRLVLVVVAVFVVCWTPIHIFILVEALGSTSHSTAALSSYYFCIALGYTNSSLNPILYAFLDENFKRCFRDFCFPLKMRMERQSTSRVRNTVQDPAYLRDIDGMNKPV

Nc1ccc(CN(Cc2ccc(O)cc2)C(=O)Cc2c[nH]c3ccccc23)cc1 [Compound 5]
Ki (κ-OR): 3.8 ± 0.52 µM
Ki (µM) κ-OR (κ-OR): low μM range
Histone H2/H3 acetylation [1]: did not modify the state of acetylation of H2/H3
Histone H4 acetylation [1]: induced H4 hyperacetylation
